Source: patent publication US9938320B2, “Peptides for promoting angiogenesis and use thereof” (INDUSTRY-ACADEMIC COOPERATION FOUNDATION, SOOKMYUNG WOMEN'S …, priority 2010, dated 2018)

Key:
HUVECs = test: Migration of HUVECs through polycarbonate filter chamber; assay type: cell-based, human; settings: 37° C. for 10 hours, negative control (untreated) = 100
Procedure: In order to investigate the effect of the 4 peptides prepared in Example 1 on blood vessel formation, migration of HUVECs was measured.
The bottom portion of a chamber of a 24-well plate (Corning Costar, USA) having a polycarbonate filter with pores therebelow was coated with 0.5 mg/mL collagen type 1 ([…]). After adding EBM-2 containing the 4 peptides of the peptide of the present invention to the bottom portion of the chamber, HUVECs were inoculated at the upper portion of the chamber, with 1×10^5 cells per well. After incubation at 37° C. for 10 hours, the cells that had passed through the polycarbonate filter were fixed with methanol, stained with hematoxylin, and counted under a microscope.

[1] = tested on: human umbilical vein endothelial cells (HUVECs); test: Proliferation of HUVECs (CyQUANT kit); assay type: cell-based; settings: 48 hours with peptide, negative control (untreated) = 100
Procedure: In order to investigate the effect of the 4 peptides prepared in Example 1 on blood vessel formation, human umbilical vein endothelial cells (HUVECs) were treated with the peptide of the present invention and their proliferation was observed.
HUVECs were cultured in endothelial cell basal medium-2 (EBM-2, Clonetics Co., San Diego, USA) containing 2% fetal bovine serum (FBS). The cultured HUVECs were transferred to a 96-well plate, with 1000 cells per each well. After culturing for 24 hours followed by addition of the 4 peptides of the peptide of the present invention to each well, they were further cultured for 48 hours. The cells treated with VEGF instead of the peptide of the present invention and those treated with nothing were cultured under the same condition, as positive control group and negative control group, respectively. Upon completion of the culturing, the degree of cell proliferation was measured using the CyQUANT kit (Invitrogen, USA).

| Substance | Cell migration (%) (HUVECs) | Cell proliferation (%) [1] |
| --- | --- | --- |
| NQES (Pep_10 Artificial Peptide for Promotion of Angiogenesis) | 173.2% | 146.5% |
| PKES (Pep_9 Artificial Peptide for Promotion of Angiogenesis) | 156.4% | 212.5% |
| SDRGA (Pep_8 Artificial Peptide for Promotion of Angiogenesis) | 147.0% | 209.2% |
| SEGQK (Pep_7 Artificial Peptide for Promotion of Angiogenesis) | 155.4% | 203.3% |
| VEGF | 146.3% | 166.0% |
